{"source": "paper PMC4569848", "about": "(Nature Communications, 2015)", "format_in_all_cases": "cell-based", "key": {"β2AR [1]": {"system": "β2AR", "assay": "Intramolecular BRET of Luc-β-arrestin-1-YFP (arrestin conformational change)", "settings": "HEK293 cells, 10 μM ISO, 10 min", "procedure": "(a) Activation of β2-AR-induced conformational changes in β-arrestin-1 as measured using intramolecular BRET. Plasmids encoding a β-arrestin-1 BRET biosensor (Luc-β-arrestin-1-YFP) and Flag-β2-AR were transiently co-transfected in HEK293 cells. After starvation, the cells were stimulated with ISO (10 μM) for 10 min. The effects of GRK phosphorylation of β2-AR on ISO-induced β-arrestin-1 conformational change were probed using siRNA-mediated GRK knockdown.\nThe pcDNA3.0-Flag-β2AR (Flag-β2AR), β-arrestin-1-YFP, pcDNA3.1-Luc-β-arrestin-2-YFP and pCDNA3.1-Clathrin constructs were generous gifts from Dr Lefkowitz at Duke University[21][32]. […] To monitor the β-arrestin-1 conformational change, the BRET sensor for β-arrestin-1 (pcDNA3.1-Luc-β-arrestin-1-YFP) was created by in-Fusion of the β-arrestin-1-YFP plasmid with the pcDNA3.1-Luc-β-arrestin-2-YFP construct[57][58]. […] All of the constructs and mutations were verified by DNA sequencing.\nHEK 293 cells were attained from ATCC and cultured at 37 °C and 5% CO2 in DMEM containing 10% (v/v) fetal bovine serum and penicillin–streptomycin (5,000 IU l^−1). GRK2 or GRK6 expression was silenced in HEK 293 cells using a specific small interfering RNA (siRNA) duplex."}, "β2AR [2]": {"system": "β2AR", "assay": "Western blot of SRC activation (phospho-SRC 416)", "settings": "HEK293 cells, ISO 1, 5 and 15 min", "procedure": "(b) A representative western blotting is shown for the effects of knockdown of specific GRKs in β2-AR-mediated proto-oncogene tyrosine-protein kinase (SRC) activation. Left panel: HEK293 cells that were transiently transfected with Flag-β2-AR were stimulated with ISO for 1, 5 and 15 min. To examine the roles of GRK2 and GRK6 in β2-AR-mediated SRC activation, siRNAs that were selective for specific GRKs were transfected into the cells. A western blot representative of at least three independent experiments is shown on the left. Right panel: western blot signals of phospho-SRC 416 (a) were quantified using densitometry and are expressed as fold change versus basal level. […] (a,b) At least three independent experiments were performed. #P<0.05, ISO-stimulated cells are compared with unstimulated cells. *P<0.05; **P<0.01; ***P<0.005; GRK siRNA-treated cells are compared with control siRNA-treated cells.\nGRK2 or GRK6 expression was silenced in HEK 293 cells using a specific small interfering RNA (siRNA) duplex. […]\nTo examine the roles of GRK2 and GRK6 in β2-AR-mediated SRC activation, selective siRNA towards specific GRK and Flag-β2AR plasmids were co-transfected into HEK-293 cells. […] Lysate protein concentrations were determined using the Bradford protein assay. […] SRC-416 phosphorylation was detected using a specific antibody."}, "β2AR [3]": {"system": "β2AR", "assay": "Co-IP β-arrestin-1/clathrin downstream of β2AR", "settings": "HEK293, 10 μM ISO, 15 min, β-arrestin-1 R25A (site 4) vs wild type", "source_text": "(§3) (a) The phospho-binding pattern of β-arrestin-1 determines selective arrestin functions downstream of β2AR in cells. […] The β-arrestin-1 was immunoprecipitated by HA-antibody-conjugated agarose and the formation of the β-arrestin-1/clathrin or β-arrestin-1/SRC was detected by specific clathrin or SRC antibodies. […] (a–c) Representative western blottings from at least three experiments are shown on the left and the statistics from at least three independent experiments are shown on the right. *P<0.05, **P<0.01; the effects of mutants were compared with the wild type.\n(§4) To examine the effects of β-arrestin-1 mutants on ISO, CCK-8s or somatostatin induced clathrin/β-arrestin-1 or SRC/β-arrestin-1 complex formation downstream of β2AR, CCKAR and SSTR2; HEK293 cells were co-transfected with Flag-β2AR/HA-β-arrestin-1, Flag-CCKAR/HA-β-arrestin-1 or Flag-SSTR2/HA-β-arrestin-1, respectively. Different HA-β-arrestin-1 mutations were used to detect the contribution of the phosphate-binding sites of β-arrestin-1 during the arrestin/clathrin or arrestin/SRC complex formatin. […] Immune complexes were analysed by western blotting with specific antibody towards clathrin or pSRC416, respectively.Representative western blots from at least three experiments are shown in Fig. 8."}, "β2AR [4]": {"system": "β2AR", "assay": "Co-IP β-arrestin-1/SRC downstream of β2AR", "settings": "HEK293, 10 μM ISO, 15 min, β-arrestin-1 R7A (site 5) vs wild type", "source_text": "as §3, §4"}, "β2AR [5]": {"system": "β2AR", "procedure": "To examine the effects of β-arrestin-1 mutants on ISO-induced β2AR/β-arrestin-1 complex formation, the co-immunoprecipitation experiment was performed[61][62]. In detail, HEK293 cells were co-transfected with Flag-β2AR and β-arrestin-1-YFP mutants. Twenty-four hours after transfection, the cells were starved for 4 h and then stimulated with ISO (10 μM) for 10 min. The cell lysates were subjected to immunoprecipitation using anti-FLAG beads incubated overnight at 4 °C. Immune complexes were analysed by western blotting with specific antibodies. The associated β-arrestin 1-YFP was detected using an anti-YFP antibody."}, "CCKAR [6]": {"system": "CCKAR", "assay": "Co-IP β-arrestin-1/clathrin downstream of CCKAR", "settings": "HEK293, 2 μM CCK-8s", "method": "(§1) Figure 8 Phospho-pattern-selective mechanisms of specific arrestin functions are common for at least a subset of GPCRs. (a) The phospho-binding pattern of β-arrestin-1 determines selective arrestin functions downstream of β2AR in cells. HEK293 cells were co-transfected with Flag-β2AR and wild-type HA-β-arrestin-1 or specific phosphate-binding site mutants (R25A for site 4 and R7A for site 5), then stimulated with 10 μM isoproterenol (ISO) for 15 min. The β-arrestin-1 was immunoprecipitated by HA-antibody-conjugated agarose and the formation of the β-arrestin-1/clathrin or β-arrestin-1/SRC was detected by specific clathrin or SRC antibodies. […] (b,c) The phospho-binding pattern of β-arrestin-1 determines selective arrestin interaction with clathrin or SRC downstream of somatostatin receptor 2 (SSTR2, Fig. 4c) and cholecystokinin A receptor (CCKAR, Fig. 4d). […]\n(§2) To examine the effects of β-arrestin-1 mutants on ISO, CCK-8s or somatostatin induced clathrin/β-arrestin-1 or SRC/β-arrestin-1 complex formation downstream of β2AR, CCKAR and SSTR2; HEK293 cells were co-transfected with Flag-β2AR/HA-β-arrestin-1, Flag-CCKAR/HA-β-arrestin-1 or Flag-SSTR2/HA-β-arrestin-1, respectively. […] Immune complexes were analysed by western blotting with specific antibody towards clathrin or pSRC416, respectively.Representative western blots from at least three experiments are shown in Fig. 8."}, "CCKAR [7]": {"system": "CCKAR", "assay": "Co-IP β-arrestin-1/SRC downstream of CCKAR", "settings": "HEK293, 2 μM CCK-8s, 15 min", "method": "as §1, §2"}, "SSTR2 [8]": {"system": "SSTR2", "assay": "Co-IP β-arrestin-1/clathrin downstream of SSTR2", "settings": "HEK293, 1 μM somatostatin", "method": "as §1, §2"}, "SSTR2 [9]": {"system": "SSTR2", "assay": "Co-IP β-arrestin-1/SRC downstream of SSTR2", "settings": "HEK293, 1 μM somatostatin", "method": "as §1, §2"}}, "note": "“Also recorded” adds a separate entry of the source. No end group written: not given here. *: point of attachment. sulfate = O=S(=O)(O)*", "data": [{"compound": "CC(C)NCC(O)c1ccc(O)c(O)c1", "note": "(stereo not drawn) [ISO, isoproterenol]", "values": [{"measurement": "BRET signal of Rluc-β-arrestin-1-YFP", "setting": "β2AR [1]; Flag-β2AR", "result": "significantly increased the BRET signal"}, {"measurement": "BRET signal of Rluc-β-arrestin-1-YFP, GRK2 knockdown", "setting": "β2AR [1]; GRK2 siRNA", "result": "significantly reduced by the knockdown of either GRK2 or GRK6"}, {"measurement": "BRET signal of Rluc-β-arrestin-1-YFP, GRK6 knockdown", "setting": "β2AR [1]; GRK6 siRNA", "result": "significantly reduced by the knockdown of either GRK2 or GRK6"}, {"measurement": "SRC activation, role of GRK2 (knockdown)", "setting": "β2AR [2]; GRK2 siRNA", "result": "GRK2 is a negative regulator of β2-AR-induced SRC activation"}, {"measurement": "SRC activation, role of GRK6 (knockdown)", "setting": "β2AR [2]; GRK6 siRNA", "result": "GRK6 is required for SRC activation downstream of β2-AR activation"}, {"measurement": "β-arrestin-1/clathrin complex formation, R25A", "setting": "β2AR [3]", "result": "selectively impaired β-arrestin-1/clathrin interaction downstream of β2AR activation; also recorded: selectively disrupted the ISO-induced β-arrestin-1/clathrin complex formation"}, {"measurement": "β-arrestin-1/SRC complex formation, R7A", "setting": "β2AR [4]", "result": "specifically eliminated ISO-induced β-arrestin-1/SRC association; also recorded: the ISO-induced β-arrestin-1/SRC complex formation"}, {"measurement": "β2AR/β-arrestin-1 complex formation with β-arrestin-1 mutants", "setting": "β2AR [5]", "result": "All of the tested β-arrestin-1 mutants bound to β2AR after ISO stimulation"}]}, {"compound": "CCK-8s: CCKAR agonist, 2 μM (DY(sulfate)MGWMDF; ends and bridges not checked; UniProt P06307 96-103, looked up)", "values": [{"measurement": "β-arrestin-1/clathrin interaction", "setting": "CCKAR [6]; 15 min", "result": "only promoted β-arrestin-1/clathrin interaction"}, {"measurement": "β-arrestin-1/clathrin interaction, R25A", "setting": "CCKAR [6]; β-arrestin-1 R25A vs wild type", "result": "selectively disrupted β-arrestin-1/clathrin interaction"}, {"measurement": "β-arrestin-1/SRC recruitment", "setting": "CCKAR [7]", "result": "only promoted β-arrestin-1/clathrin interaction"}]}, {"compound": "somatostatin", "values": [{"measurement": "β-arrestin-1/clathrin recruitment", "setting": "SSTR2 [8]; 15 min", "result": "promoted both clathrin and SRC recruitment for β-arrestin-1"}, {"measurement": "β-arrestin-1/clathrin interaction, R25A", "setting": "SSTR2 [8]; β-arrestin-1 R25A vs wild type", "result": "selectively disrupted β-arrestin-1/clathrin interaction"}, {"measurement": "β-arrestin-1/SRC recruitment", "setting": "SSTR2 [9]; 15 min", "result": "promoted both clathrin and SRC recruitment for β-arrestin-1"}, {"measurement": "β-arrestin-1/SRC complex formation, R7A", "setting": "SSTR2 [9]; β-arrestin-1 R7A vs wild type", "result": "impaired the β-arrestin-1/SRC complex formation"}]}]}
